One data set has as its target T1, Human NAMPT (Homo sapiens, UniProt P43490).
T1 construct: 6xHis (N); made in house; host or cells: E. coli BL21-AI
Briefly: Nampt Activity Assay (coupled enzyme fluorometric, resazurin/diaphorase). Type of data set: biochemical. The following applies: His-tagged human NAMPT, 3 μM NAM, 8 μM PRPP, room temperature up to 3 hours; read-out: in vitro IC50 (Nampt catalytic activity). The source says:
5-phosphoribosyl-1-pyrophosphate (PRPP), ATP, NaM, NaMN, Triton X-100, UDP-glucose and diaphorase were purchased from Sigma-Aldrich, St. Louis, Mo. Human NAMPT, NMN adenylyltransferase (NMNAT1) and UDP-glucose dehydrogenase (UGDH) encoding DNAs were each inserted into a house-modified E. Coli expression vector such that the expressed proteins carried an N-terminal 6×His tag. The His-tagged proteins were expressed in the BL21-AI E. Coli expression strain (Invitrogen Corporation, Carlsbad, Calif.) following induction by 0.2% L-arabinose and 0.5 mM IPTG at 30° C. Proteins were purified on Ni-NTA resin (Qiagen, Germantown, Md.).
The assay for Nampt catalytic activity was constructed based on a previously published coupled enzyme fluorometric technique, which employs NADH as ultimate analyte (Revollo, J. R. et al. Biol. Chem. 279, 50754-50763 (2004)). A substantial improvement in assay sensitivity was achieved by switching from direct detection to a resazurin/diaphorase-based fluorometric detection system for NADH (Guilbault, G. G., and Kramer, D. N. Anal. Chem. 37, 1219-1221 (1965)). The standard inhibition analyses were performed in a real-time mode in 96-well microtiter plates using 50 mM Tris-HCl, pH 7.5, 1% DMSO (v/v), 0.01% Triton X-100 (v/v), 10 mM MgCl2, 2 mM ATP, 3 μM NAM, 8 μM PRPP, […], as well as the following detection reagents: 5 nM Nmnat, 200 nM Ugdh, 200 μM UDP-glucose, 0.02 U/mL diaphorase and 0.25 μM resazurin. Incubation of samples at room temperature for up to 3 hours was followed by quantification of fluorescence intensities at excitation and emission wavelengths of 510 nm and 590 nm, respectively, using Gemini XS plate reader (Molecular Devices, Sunnyvale, Calif.). The counter-assay intended to disqualify false positives, such as inhibitors of detection enzymes or fluorescence quenchers, was carried out essentially as described above with an exception that 1 μM NaMN was substituted for Nampt.

Data set [1] can be described thus: Cytotoxicity Assay (HCT116, CellTiter-Glo). It is filed as cell-based. The following applies: human. Put shortly:
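Cells settled overnight, then exposed to compound in DMSO for 72 h, optionally with nicotinic acid (10 μM final) added alongside. Viability read as CellTiter-Glo luminescence.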
On the technique in general: In ATP-based viability assays light output follows the ATP content of the culture.

The mark [2] stands for this setting: HCT116 cells, 72 hours drug incubation, CellTiter-Glo luminescence, read-out: HCT116 cell cytotoxicity IC50.

Where two headings read alike, the source gives them in different places.

What is called IC50 is the concentration that inhibits the measured activity by half.

T1 sequence (P43490 whole entry): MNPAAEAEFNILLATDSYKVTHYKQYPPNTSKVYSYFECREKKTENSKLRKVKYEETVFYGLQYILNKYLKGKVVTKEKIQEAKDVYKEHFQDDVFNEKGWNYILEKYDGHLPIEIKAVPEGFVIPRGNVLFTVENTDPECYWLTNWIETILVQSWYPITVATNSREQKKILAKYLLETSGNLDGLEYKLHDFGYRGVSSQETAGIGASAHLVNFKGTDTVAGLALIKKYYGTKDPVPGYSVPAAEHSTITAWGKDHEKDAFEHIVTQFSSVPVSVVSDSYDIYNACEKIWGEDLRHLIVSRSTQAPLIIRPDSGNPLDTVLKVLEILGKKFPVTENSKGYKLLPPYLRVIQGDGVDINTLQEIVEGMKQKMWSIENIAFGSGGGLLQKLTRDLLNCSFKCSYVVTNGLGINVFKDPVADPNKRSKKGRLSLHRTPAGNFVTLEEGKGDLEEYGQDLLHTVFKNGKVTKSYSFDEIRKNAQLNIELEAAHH

Consider `CC(C)N1CCC2(CC1)CN(c1ccc(NC(=O)NCc3cccnc3)cc1)c1ccccc12` [Compound 61, 1-{4-[1′-(Propan-2-yl)spiro[indole-3,4′-piperidin]-1(2H)-yl]phenyl}-3-(pyridin-3-ylmethyl)urea], for which the IC50 on Human NAMPT is less than 1 nM.

As for `O=C(NCc1cccnc1)Nc1ccc(-n2nc(N3CCN(C4CCCC4)CC3)c3ccccc32)cc1` [Compound 109, 1-{4-[3-(4-Cyclopentyl-piperazin-1-yl)-1H-indazol-1-yl]phenyl}-3-(pyridin-3-ylmethyl)urea], the IC50 on Human NAMPT is approximately 1 nM. In addition, the IC50 at 72 h in data set [1] (HCT116 cell cytotoxicity IC50) was approximately 1 nM; in data set [1] (setting [2]), less than 100 nM. Take `O=C(NCc1cccnc1)Nc1ccc(-c2nn(C3CN(C4CCCC4)C3)c3ccccc23)cc1` [Compound 33, 1-{4-[1-(1-Cyclopentyl-azetidin-3-yl)-1H-indazol-3-yl]phenyl}-3-(pyridin-3-ylmethyl)urea]: on Human NAMPT, the IC50 was less than 1 nM. In addition, the results for the IC50 at 72 h in data set [1] (HCT116 cell cytotoxicity IC50) and in data set [1] (setting [2]) were approximately 1 nM and less than 100 nM, respectively. As for `O=C(NCc1cccnc1)Nc1ccc(-n2cc(C(=O)N3CC(N4CCNCC4)C3)c3ccccc32)cc1` [Compound 15, 1-[4-(3-{[3-(Piperazin-1-yl)azetidin-1-yl]carbonyl}-1H-indol-1-yl)phenyl]-3-(pyridin-3-ylmethyl)urea], the IC50 on Human NAMPT was approximately 1 nM. This compound also yielded an IC50 at 72 h in data set [1] (HCT116 cell cytotoxicity IC50) of approximately 60 nM. Regarding `O=C(NCc1cccnc1)Nc1ccc(-n2nc(C(=O)NCCN3CCCC3)c3ccccc32)cc1` [Compound 6, 1-(4-{[(Pyridin-3-ylmethyl)carbamoyl]amino}phenyl)-N-[2-(pyrrolidin-1-yl)ethyl]-1H-indazole-3-carboxamide], on Human NAMPT, the IC50 was approximately 2 nM. Also, in data set [1] (HCT116 cell cytotoxicity IC50), the IC50 at 72 h was approximately 18 nM. On the same counts, the results for `O=C(NCc1cccnc1)Nc1ccc(-n2cc(C(=O)N3CCC(N4CCOCC4)CC3)c3cccnc32)cc1` [Compound 27, 1-[4-[3-(4-morpholinopiperidine-1-carbonyl)pyrrolo[2,3-b]pyridin-1-yl]phenyl]-3-(3-pyridylmethyl)urea] are approximately 1 nM and approximately 4 nM. For `O=C(NCc1cccnc1)Nc1ccc(-n2ccc(C(=O)NCCN3CCCC3)n2)cc1` [Compound 1, 1-(4-{[(Pyridin-3-ylmethyl)carbamoyl]amino}phenyl)-N-[2-(pyrrolidin-1-yl)ethyl]-1H-pyrazole-3-carboxamide], at Human NAMPT, the IC50 was approximately 10 nM. For the compound `O=C(NCc1cccnc1)Nc1ccc(-n2cc(C(=O)NCCCN3CCCC3)c3ccccc32)cc1` [Compound 4], the IC50 on Human NAMPT is approximately 1 nM. The IC50 at 72 h in data set [1] (HCT116 cell cytotoxicity IC50) is approximately 8 nM. For `Cc1c(-c2ccccc2)c(C(=O)O)nn1-c1ccc(NC(=O)NCc2cccnc2)cc1` [Compound 119, 5-Methyl-4-phenyl-1-(4-{[(pyridin-3-ylmethyl)carbamoyl]amino}phenyl)-1H-pyrazole-3-carboxylic acid], the IC50 on Human NAMPT was approximately 2 nM.

In the case of `O=C(/C=C/c1ccc(-n2cc(CCN3CCOCC3)c3ccccc32)cc1)NCc1cccnc1` [Compound 175, (2E)-3-(4-{3-[2-(Morpholin-4-yl)ethyl]-1H-indol-1-yl}phenyl)-N-(pyridin-3-ylmethyl)prop-2-enamide], the IC50 at Human NAMPT is approximately 1 nM. In addition, the IC50 at 72 h in data set [1] (HCT116 cell cytotoxicity IC50) was approximately 7 nM; in data set [1] (setting [2]), less than 100 nM. On the same counts, the results for `O=C(NCc1cccnc1)Nc1ccc(-n2cc(CCN3CCCC3)c3ccccc32)cc1` [Compound 78, 1-(Pyridin-3-ylmethyl)-3-(4-{3-[2-(pyrrolidin-1-yl)ethyl]-1H-indol-1-yl}phenyl)urea] are approximately 1 nM, approximately 1 nM and less than 100 nM. On the same counts, the results for `O=C(/C=C/c1ccc(-n2nc(C(=O)N3CC(N4CCOCC4)C3)c3ccccc32)cc1)NCc1cccnc1` [Compound 169, (2E)-3-[4-(3-{[3-(Morpholin-4-yl)azetidin-1-yl]carbonyl}-1H-indazol-1-yl)phenyl]-N-(pyridin-3-ylmethyl)prop-2-enamide] are approximately 3 nM, approximately 10 nM and less than 100 nM. With `O=C(NCc1cccnc1)Nc1ccc(-n2cc(C3CCN(CC(F)(F)F)CC3)c3ccccc32)cc1` [Compound 82, 1-(Pyridin-3-ylmethyl)-3-(4-{3-[1-(2,2,2-trifluoroethyl)piperidin-4-yl]-1H-indol-1-yl}phenyl)urea], the half-maximal inhibitory concentration (IC50) at 72 h in data set [1] (HCT116 cell cytotoxicity IC50) was less than 100 nM. Turning to `O=C(NCc1cccnc1)Nc1ccc(-n2cc(C3CCNCC3)c3ccccc32)cc1` [Compound 29, 1-[4-[3-(4-piperidyl)indol-1-yl]phenyl]-3-(3-pyridylmethyl)urea], the IC50 at Human NAMPT was approximately 1 nM. Turning to `O=C(NCc1cccnc1)N[C@H]1CC[C@@H](n2cc(C(=O)N3CCN(C4CCCCC4)CC3)c3ccccc32)CC1` [Compound 34, 1-(cis-4-{3-[(4-Cyclohexyl-piperazin-1-yl)carbonyl]-1H-indol-1-yl}cyclohexyl)-3-(pyridin-3-ylmethyl)urea], the IC50 at 72 h in data set [1] (setting [2]) was not below 100 nM.

With `O=C(NCCCCCCC1CNc2ccccc21)NCc1cccnc1` (stereo not drawn) [Compound 97, 1-[6-(2,3-Dihydro-1H-indol-3-yl)hexyl]-3-(pyridin-3-ylmethyl)urea], the IC50 at 72 h in data set [1] (setting [2]) is less than 100 nM. In the case of `O=C(NCc1cccnc1)Nc1ccc(-n2cc(C(=O)N3CCC(O)CC3)c3ccccc32)c(Cl)c1` [Compound 88, 1-(3-Chloro-4-{3-[(4-hydroxy-piperidin-1-yl)carbonyl]-1H-indol-1-yl}phenyl)-3-(pyridin-3-ylmethyl)urea], in data set [1] (HCT116 cell cytotoxicity IC50), the IC50 at 72 h is not below 100 nM. `O=C(NCCCCn1cc(C(=O)N2CCC(N3CCCCC3)CC2)c2ccccc21)NCc1cccnc1` [Compound 57, 1-{4-[3-(1,4′-Bipiperidin-1′-yl-carbonyl)-1H-indol-1-yl]butyl}-3-(pyridin-3-ylmethyl) urea]: in data set [1] (setting [2]), the IC50 at 72 h was less than 100 nM. The same measure, in the same setting: for `O=C(/C=C/c1ccc(-n2cc(CCN3CCCCC3)c3ccccc32)cc1)NCc1cccnc1` [Compound 182, (2E)-3-(4-{3-[2-(Piperidin-1-yl)ethyl]-1H-indol-1-yl}phenyl)-N-(pyridin-3-ylmethyl)prop-2-enamide] the value was less than 100 nM; for `O=C(NCc1cncc(F)c1)Nc1ccc(-n2cc(CCN3CCOCC3)c3ccccc32)cc1` [Compound 103, 1-[(5-Fluoro-pyridin-3-yl)methyl]-3-(4-{3-[2-(morpholin-4-yl)ethyl]-1H-indol-1-yl}phenyl)urea], less than 100 nM. Consider `COC(=O)c1cn(Cc2ccccc2)c2cc(NC(=O)NCc3cccnc3)ccc12` [Compound 83, Methyl 1-benzyl-6-{[(pyridin-3-ylmethyl)carbamoyl]ami-no}-1H-indole-3-carboxylate], for which the IC50 at 72 h in data set [1] (setting [2]) is not below 100 nM. On to `CC(C(=O)N(C)C)N1CCC2(CC1)CN(c1ccc(NC(=O)NCc3cccnc3)cc1)c1ccccc12` (stereo not drawn) [Compound 47, N,N-Dimethyl-2-[1-(4-{[(pyridin-3-ylmethyl)carbamoyl]ami-no}phenyl)-1,2-dihydro-1′H-spiro[indole-3,4′-piperidin]-1′-yl]propanamide], for which the IC50 at Human NAMPT is less than 1 nM. Further, the IC50 at 72 h in data set [1] (HCT116 cell cytotoxicity IC50) was less than 1 nM; in data set [1] (setting [2]) it was less than 100 nM. `CC(C)(C)OC(=O)N1CCC(n2cc(C#CCCCNC(=O)NCc3cccnc3)c3ccccc32)CC1` [Compound 41, tert-Butyl 4-[3-(5-{[(pyridin-3-ylmethyl)carbamoyl]ami-no}pent-1-yn-1-yl)-1H-indol-1-yl]piperidine-1-carboxylate] showed an IC50 at 72 h in data set [1] (HCT116 cell cytotoxicity IC50) not below 100 nM. In the case of `O=C(/C=C/c1ccc(-n2cc(CCN3CCCOCC3)c3ccccc32)cc1)NCc1cccnc1` [Compound 181, (2E)-3-(4-{3-[2-(1,4-Oxazepan-4-yl)ethyl]-1H-indol-1-yl}phenyl)-N-(pyridin-3-ylmethyl)prop-2-enamide], the IC50 at 72 h in data set [1] (setting [2]) was less than 100 nM. In turn, `O=C(NCc1ccc(Cl)nc1)Nc1ccc(-n2cc(CCN3CCOCC3)c3ccccc32)cc1` [Compound 128, 1-[(6-Chloro-pyridin-3-yl)methyl]-3-(4-{3-[2-(morpholin-4-yl)ethyl]-1H-indol-1-yl}phenyl)urea] yielded an IC50 at 72 h in data set [1] (HCT116 cell cytotoxicity IC50) of less than 100 nM. In the case of `Cc1c(C(=O)N2CCC(N3CCC(F)(F)CC3)CC2)c2ccccc2n1-c1ccc(NC(=O)NCc2cccnc2)cc1` [Compound 77, 1-(4-{3-[(4,4-Difluoro-1,4′-bipiperidin-1′-yl)carbonyl]-2-methyl-1H-indol-1-yl}phenyl)-3-(pyridin-3-ylmethyl)urea], in data set [1] (setting [2]), the 50% inhibitory concentration (IC50) at 72 h was less than 100 nM.

Source of the values: patent publication US20140349989A1, “COMPOUNDS AND THERAPEUTIC USES THEREOF” (Alzheimer's Institute of America, priority 2011, published 2014).
